Measurements: ChEMBL document CHEMBL1629567, “Pharmacodynamics of cidofovir for vaccinia virus infection in an in vitro hollow-fiber infection model system” (Antimicrob Agents Chemother, 2009)
Active and inactive are the calls of the source. The rule behind the calls is not given here.

Key:
Vaccinia virus [1] = assay: Antiviral activity against Vaccinia virus WR harboring HIV gag gene infected in HeLaS3 cells compound administered as bolus infusion equivalent to 100 uM continuous infusion in hollow-fiber infection model after 72 hrs by ELISA; type: functional, Orthopoxvirus vaccinia, HeLa S3
Vaccinia virus [2] = assay: Antiviral activity against Vaccinia virus WR harboring the HIV gag gene infected in HeLaS3 cells assessed as inhibition of viral replication in hollow-fiber infection model at >= 50 uM as continuous infusion by plaque assay; type: functional, organism-based; settings: Orthopoxvirus vaccinia, HeLa S3
Vaccinia virus [3] = assay: Antiviral activity against Vaccinia virus WR harboring HIV gag gene infected in HeLaS3 cells at 100 uM as continuous infusion in hollow-fiber infection model after 72 hrs by ELISA; type: functional, organism-based; settings: Orthopoxvirus vaccinia, HeLa S3
Vaccinia virus [4] = assay: Antiviral activity against Vaccinia virus WR harboring the HIV gag gene infected in HeLaS3 cells after 3 to 5 days by plaque assay; type: functional, organism-based; settings: Orthopoxvirus vaccinia, HeLa S3
Vaccinia virus [5] = assay: Antiviral activity against Vaccinia virus WR harboring the HIV gag gene infected in HeLaS3 cells assessed as inhibition of viral replication in hollow-fiber infection model by plaque assay; type: functional, organism-based; settings: Orthopoxvirus vaccinia, HeLa S3
Vaccinia virus [6] = assay: Antiviral activity against Vaccinia virus WR harboring HIV gag gene infected in HeLaS3 cells at 3 uM administered as intermittent infusion over 1 hr measured after 72 hrs in hollow-fiber infection model by ELISA; type: functional, organism-based; settings: Orthopoxvirus vaccinia, HeLa S3
Vaccinia virus [7] = assay: Antiviral activity against Vaccinia virus WR harboring HIV gag gene infected in HeLaS3 cells at 100 uM administered as intermittent infusion over 1 hr measured in hollow-fiber infection model after 72 hrs by ELISA; type: functional, organism-based; settings: Orthopoxvirus vaccinia, HeLa S3
Vaccinia virus [8] = assay: Antiviral activity against Vaccinia virus WR harboring HIV gag gene infected in HeLaS3 cells at 30 uM as continuous infusion in hollow-fiber infection model after 72 hrs by ELISA; type: functional, organism-based; settings: Orthopoxvirus vaccinia, HeLa S3
Vaccinia virus [9] = assay: Antiviral activity against Vaccinia virus WR harboring HIV gag gene infected in HeLaS3 cells at 30 uM administered as intermittent infusion over 1 hr measured in hollow-fiber infection model after 72 hrs by ELISA; type: functional, organism-based; settings: Orthopoxvirus vaccinia, HeLa S3
Vaccinia virus [10] = assay: Antiviral activity against Vaccinia virus WR harboring HIV gag gene infected in HeLaS3 cells at 3 uM as continuous infusion in hollow-fiber infection model after 72 hrs by ELISA; type: functional, organism-based; settings: Orthopoxvirus vaccinia, HeLa S3

Structure (SMILES): Nc1ccn(C[C@@H](CO)OCP(=O)(O)O)c(=O)n1.O.O [CIDOFOVIR]
- Activity (Vaccinia virus [1]): 81%
- inhibition (Vaccinia virus [2]): Active
- Activity (Vaccinia virus [3]): inactive
- EC50 (Vaccinia virus [4]): 30.9 µM
- IC50 (Vaccinia virus [5]): 38 µM
- Activity (Vaccinia virus [6]): inactive
- Activity (Vaccinia virus [7]): inactive
- Activity (Vaccinia virus [8]): inactive
- Activity (Vaccinia virus [9]): inactive
- Activity (Vaccinia virus [10]): inactive
